Measurements as given in patent US20240260575A1, “AGRICULTURAL AND HORTICULTURAL FUNGICIDAL COMPOSITION” (Nippon Soda Co., Ltd., priority 2021, published 2024).

Assays:
[1] = system: gray mold pathogen (Botrytis cinerea); test: Gray mold antimicrobial test (growth inhibition rate); type: cell-based; parameters: growth inhibition rate, component (II) alone: concentration or dose not given beside the values; settings: for growth inhibition rate: Compound 1 (0.25 or 0.063 ppm) alone or mixed with component (II)
Protocol: (Test Example) Gray Mold Antimicrobial Test (Growth Inhibition Rate)
Conidiospores of a gray mold pathogen (Botrytis cinerea) were added to and dispersed in a yeast extract sucrose medium, and a component (I) and a component (II) dissolved in dimethyl sulfoxide at predetermined concentrations were further added and mixed thereto, and the resulting solution was dispensed onto a 96-well microplate and cultivated in the dark at 20° C. for 3 to 5 days. After the cultivation, the turbidity at a wavelength of 405 nm was measured by a microplate reader and compared with that in the untreated case to determine the growth inhibition rate (%) for the gray mold pathogen. The test was duplicately carried out. The results are shown in Tables 3 to 7 together with expected values calculated as follows.
Expected values were calculated by using Colby's equation: E=M+N−MN/100. Here, E denotes an expected value (%) of a growth inhibition rate, M denotes a growth inhibition rate (%) in using a component (I) alone, and N denotes a growth inhibition rate (%) in using a component (II) alone.
If the actually measured growth inhibition rate (%) of a composition of a component (I) and a component (II) is higher than the expected value, E, the composition of a component (I) and a component (II) is said to have exerted synergistic effect.

[2] = system: cucumber powdery mildew pathogen (Sphaerotheca fuliginea); test: Cucumber powdery mildew control test; type: in vivo; parameters: scale not given here; settings: for control value: Compound 1 0.4 ppm alone or mixed with component (II), sprayed onto cucumber seedlings
Description: (Test Example) Cucumber Powdery Mildew Control Test 1) Preparation of Drug Solution for Test […] The other components (II) were each formulated into an aqueous solution or suspension having a predetermined concentration. 2) Test A mixed solution of a component (I) and a component (II) at a predetermined concentration was sprayed onto cucumber seedlings (variety: “Shimo-shirazu, creeping type”, cotyledon stage). After natural drying at room temperature, conidiospores of a cucumber powdery mildew pathogen (Sphaerotheca fuliginea) were inoculated by blushing off, and the seedlings were kept in a thermostatic room at 20° C. using a 12 hour light/dark cycle for 7 to 10 days. The states of lesion development on leaves were examined by comparing with that for the untreated case, and the control values were determined. The test was duplicately carried out. The results are shown in Tables 8 to 12 together with expected values calculated as follows. Expected values were calculated by using Colby's equation: […] Here, E denotes an expected value of a control value, M denotes a control value in using a component (I) alone, and N denotes a control value in using a component (II) alone. If the actually measured control value of a composition of a component (I) and a component (II) is higher than the expected value, E, the composition of a component (I) and a component (II) is said to have exerted synergistic effect.

[3] = Table 8, ppm or dilution rate: Thiophanate-methyl 1.6, Triflumizole 25, Cyflufenamid 1.6, Iminoctadine acetate 0.25, Iminoctadine albesilate 1, Picarbutrazox 2000, Ipflufenoquin 1, Bacillus subtilis ×250, Pseudomonas rhodesiae ×2000, Sodium hydrogen carbonate 250, Potassium bicarbonate 250, Orange oil 4000, Linalool 4000, Thymol 100, Neem oil 2000, Prothioconazole 1.6, Mancozeb 63, Mineral oil 500
[4] = Table 9, ppm or dilution rate: Thiophanate-methyl 1.6, Triflumizole 25, Cyflufenamid 1.6, Iminoctadine acetate 0.25, Iminoctadine albesilate 1, Picarbutrazox 2000, Ipflufenoquin 1, Bacillus subtilis ×250, Pseudomonas rhodesiae ×2000, Sodium hydrogen carbonate 250, Potassium bicarbonate 250, Orange oil 1000, Linalool 4000, Thymol 100, Neem oil 2000, Prothioconazole 1.6, Mancozeb 63, Mineral oil 500
[5] = Table 10, ppm or dilution rate: Thiophanate-methyl 1.6, Triflumizole 25, Cyflufenamid 1.6, Iminoctadine acetate 0.25, Iminoctadine albesilate 1, Picarbutrazox 2000, Ipflufenoquin 1, Bacillus subtilis ×1000, Pseudomonas rhodesiae ×2000, Sodium hydrogen carbonate 250, Potassium bicarbonate 250, Orange oil 1000, Linalool 4000, Thymol 100, Neem oil 2000, Prothioconazole 1.6, Mancozeb 63, Mineral oil 5
[6] = Table 11, ppm or dilution rate: Thiophanate-methyl 1.6, Triflumizole 25, Cyflufenamid 1.6, Iminoctadine acetate 1, Iminoctadine albesilate 1, Picarbutrazox 2000, Ipflufenoquin 1, Bacillus subtilis ×1000, Pseudomonas rhodesiae ×2000, Sodium hydrogen carbonate 250, Potassium bicarbonate 250, Orange oil 1000, Linalool 4000, Thymol 100, Neem oil 2000, Prothioconazole 1.6, Mancozeb 63, Mineral oil 500
[7] = Table 12, ppm or dilution rate: Thiophanate-methyl 1.6, Triflumizole 25, Cyflufenamid 1.6, Iminoctadine acetate 0.25, Iminoctadine albesilate 1, Picarbutrazox 2000, Ipflufenoquin 1, Bacillus subtilis ×1000, Pseudomonas rhodesiae ×2000, Sodium hydrogen carbonate 1000, Potassium bicarbonate 250, Orange oil 1000, Linalool 4000, Thymol 400, Neem oil 2000, Prothioconazole 1.6, Mancozeb 63, Mineral oil
[8] = Table 3, ppm: Ipflufenoquin 10, Cyflufenamid 10, Thiophamate-methyl 0.4, Iminoctadine acetate 0.08, Iminoctadine albesilate 0.08, Triflumizole 0.0032, Picarbutrazox 0.08, Prothioconazole 0.0032, Mefentrifluconazole 0.00064, Cymoxanil 10, Fludioxonil 0.016, Metyltetraprole 0.4, Florylpicoxamid 0.08, Fluxapyroxad 0.08, Fluopyram 0.4, Potassium phosphite 10, Fipronil 2, Chlorantraniliprole 0.016, Aba
[9] = Table 5, ppm: Ipflufenoquin 10, Cyflufenamid 10, Thiophamate-methyl 0.4, Iminoctadine albesilate 0.4, Picarbutrazox 0.0032, Mefentrifluconazole 0.0006, Cymoxanil 10, Captan 0.0032, Fludioxonil 0.016, Metyltetraprole 10, Florylpicoxamid 0.0001, Fluxapyroxad 0.016, Fluopyram 0.0032, Potassium phosphite 0.08, Fipronil 2, Chlorantraniliprole 0.016, Abamectin 0.4, Sulfoxaflor 0.4, Tebufenozide 10
[10] = Table 6, ppm: Ipflufenoquin 10, Cyflufenamid 0.08, Thiophamate-methyl 2, Triflumizole 0.08, Picarbutrazox 0.0016, Prothioconazole 0.0006, Mefentrifluconazole 0.08, Cymoxanil 0.08, Captan 0.08, Fludioxonil 0.016, Metyltetraprole 10, Florylpicoxamid 0.0006, Fluxapyroxad 0.0032, Fluopyram 0.016, Potassium phosphite 0.016, Fipronil 10, Chlorantraniliprole 0.08, Abamectin 2, Sulfoxaflor 0.08, Tebufenoz
[11] = Table 7, ppm: Ipflufenoquin 0.08, Cyflufenamid 0.08, Thiophamate-methyl 2, Iminoctadine acetate 0.0001, Iminoctadine albesilate 0.4, Triflumizole 0.4, Prothioconazole 0.0032, Mefentrifluconazole 0.08, Cymoxanil 0.08, Captan 0.08, Fludioxonil 0.08, Metyltetraprole 0.0032, Florylpicoxamid 0.0006, Fluxapyroxad 0.016, Fluopyram 0.0032, Potassium phosphite 0.016, Fipronil 2, Chlorantraniliprole 0.016
[12] = Table 4, ppm: Ipflufenoquin 10, Cyflufenamid 2, Thiophamate-methyl 0.4, Iminoctadine acetate 0.08, Iminoctadine albesilate 0.4, Picarbutrazox 10, Prothioconazole 0.0032, Mefentrifluconazole 0.0006, Cymoxanil 10, Fludioxonil 0.016, Metyltetraprole 10, Fluxapyroxad 0.016, Fluopyram 0.4, Potassium phosphite 10, Fipronil 2, Chlorantraniliprole 0.016, Abamectin 0.016, Sulfoxaflor 10, Tebufenozide 0.016

Row | Compound | control value, component (II) alone [2, 3] | control value, component (II) alone [2, 4] | control value, component (II) alone [2, 5] | control value, component (II) alone [2, 6] | control value, component (II) alone [2, 7] | growth inhibition rate, component (II) alone [1, 8] [%] | growth inhibition rate, component (II) alone [1, 9] [%] | growth inhibition rate, component (II) alone [1, 10] [%] | growth inhibition rate, component (II) alone [1, 11] [%] | growth inhibition rate, component (II) alone [1, 12] [%] | other results
1 | COc1ccc(F)cc1C(O)Cn1cc(/C(C)=N/OC(C)C)c(=O)n(C[C@@H](NC(=O)C(C)C)C(C)C)c1=O (stereo partly shown) [Compound 1] | – | – | – | – | – | – | – | – | – | – | growth inhibition rate ([1]; Table 3, Examination 2): 52%; growth inhibition rate ([1]; Table 3, Examination 4): 31%; control value ([2]; Table 8, Examination 1): 78; control value ([2]; Table 8, Examination 2): 64; control value ([2]; Table 8, Examination 3): 67; control value ([2]; Table 8, Examination 4): 83; control value ([2]; Table 8, Examination 5): 75; control value ([2]; Table 8, Examination 6): 67
2 | O=C(Cc1ccccc1)N/C(=N\OCC1CC1)c1c(C(F)(F)F)ccc(F)c1F [Cyflufenamid] | 50 | 50 | 50 | 50 | 50 | – | – | – | – | – | –
3 | COc1ccnc(C(=O)N[C@@H](C)C(=O)O[C@@H](C)C(c2ccc(F)cc2)c2ccc(F)cc2)c1OC(C)=O [Florylpicoxamid] | – | – | – | – | – | 13 | 0 | 8 | 6 | – | –
4 | Cn1cc(C(=O)Nc2ccccc2-c2cc(F)c(F)c(F)c2)c(C(F)F)n1 [Fluxapyroxad] | – | – | – | – | – | 8 | 10 | 10 | 11 | 10 | –
5 | C=CC(C)(O)CCC=C(C)C (stereo not shown) [Linalool] | 27 | 27 | 17 | 17 | 27 | – | – | – | – | – | –
6 | CC(O)(Cn1cncn1)c1ccc(Oc2ccc(Cl)cc2)cc1C(F)(F)F (stereo not shown) [Mefentrifluconazole] | – | – | – | – | – | 0 | 48 | 37 | 34 | 0 | –
7 | Cc1cccc(-n2nnn(C)c2=O)c1COc1ccn(-c2ccc(Cl)cc2)n1 [Metyltetraprole] | – | – | – | – | – | 0 | 33 | 33 | 0 | 52 | –
8 | O=C([O-])O.[K+] [Potassium bicarbonate] | 64 | 64 | 17 | 64 | 64 | – | – | – | – | – | –
9 | OC(Cc1ccccc1Cl)(Cn1nc[nH]c1=S)C1(Cl)CC1 (stereo not shown) [Prothioconazole] | 50 | 0 | 17 | 0 | 0 | – | – | – | – | – | –
10 | O=C([O-])O.[Na+] [Sodium hydrogen carbonate] | 33 | 33 | 33 | 33 | 33 | – | – | – | – | – | –
11 | COC(=O)NC(=S)Nc1ccccc1NC(=S)NC(=O)OC [Thiophanate-methyl] | 83 | 83 | 0 | 67 | 17 | – | – | – | – | – | –
12 | Cc1ccc(C(C)C)c(O)c1 [Thymol] | 17 | 17 | 17 | 17 | 50 | – | – | – | – | – | –
13 | CCCOC/C(=N\c1ccc(Cl)cc1C(F)(F)F)n1ccnc1 [Triflumizole] | 27 | 27 | 27 | 27 | 27 | – | – | – | – | – | –
14 | Abamectin | – | – | – | – | – | 0 | 64 | 12 | 0 | 0 | –
15 | Mancozeb | 17 | 17 | 17 | 17 | 17 | – | – | – | – | – | –
16 | Potassium phosphite | – | – | – | – | – | 0 | 0 | 1 | 12 | 0 | –
